Laboratory results taken from article PMC8341910, “Structural and biophysical insights into the mode of covalent binding of rationally designed potent BMX inhibitors” (RSC Chemical Biology, 2020).
Several values for one entry are separate records, joined by “and”; a condition that tells them apart may be missing. Equal entries are not always repeated.

How the values were obtained:
U-87MG = assay: Multi cell line growth assay (CellTiter-Glo, 72 h); type: cell-based; details: Homo sapiens, Brain, ND = no growth inhibition observed
BMX = biological target: T1, BMX (Homo sapiens, UniProt P51813); assay: Kinetic characterization with ADP-Glo kinase assay; type: biochemical; set-up: purchased Promega Corporation (USA) V4512; details: duplicate, mean ± S.D.
T1 sequence (P51813 1-675): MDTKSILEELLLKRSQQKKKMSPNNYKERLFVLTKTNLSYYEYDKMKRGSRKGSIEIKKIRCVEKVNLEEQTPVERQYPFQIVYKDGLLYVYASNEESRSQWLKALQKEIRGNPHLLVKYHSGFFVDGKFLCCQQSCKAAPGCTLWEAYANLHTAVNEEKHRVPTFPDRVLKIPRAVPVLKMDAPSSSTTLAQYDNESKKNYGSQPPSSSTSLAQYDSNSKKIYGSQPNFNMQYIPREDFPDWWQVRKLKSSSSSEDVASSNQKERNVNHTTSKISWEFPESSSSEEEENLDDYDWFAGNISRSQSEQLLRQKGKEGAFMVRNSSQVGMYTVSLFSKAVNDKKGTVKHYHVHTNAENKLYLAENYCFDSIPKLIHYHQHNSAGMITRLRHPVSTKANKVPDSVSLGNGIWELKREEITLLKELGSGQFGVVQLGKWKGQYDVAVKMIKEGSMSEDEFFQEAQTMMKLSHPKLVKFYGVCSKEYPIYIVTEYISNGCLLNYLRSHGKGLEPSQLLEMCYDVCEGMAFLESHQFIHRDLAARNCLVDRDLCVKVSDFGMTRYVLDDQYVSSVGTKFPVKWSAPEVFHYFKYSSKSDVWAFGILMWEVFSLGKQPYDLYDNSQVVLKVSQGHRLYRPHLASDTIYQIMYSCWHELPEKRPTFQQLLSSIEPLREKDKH
Text: The inactivation of BMX occurs in a two-step process that is governed by two parameters: the affinity of the initial non-covalent binding, KI, and the rate of the subsequent covalent bond-forming reaction with the thiol of the cysteine residue, kinact. […]. […] Thus, taking into account that all the analogues have the same Michael acceptor moiety, the enhanced activity must be a result of the structural modifications introduced in the scaffold. […]
Kinetic characterization using an ADP-GLOTM kinase assay:
The BMX enzyme system (Catalog. V4512) and the ADP-GloTM kinase assay were purchased from Promega Corporation (USA). In each kinase reaction, the concentration of BMX was set to 4.5 ng/µL. The peptide substrate Poly (4:1 Glu, Tyr) and ATP concentrations were set to 0.25 mg/mL and 50 µM, respectively. BMX was pre-incubated with different inhibitor concentrations (10-fold serial dilutions, starting at 1 mM), over different time periods (2 - 60 min), before initiating the kinase reactions. Reactions were started by adding 2.5X Poly E4Y1/ATP mixture. The reactions were carried out in a 384-well plate, stopping all at the same time with the addition of 5 µL of ADP-GloTM reagent, to consume the remaining ATP within 40 min. Then, 10 µL of kinase detection reagent was added into the wells and incubated for 30 min to produce a luminescence signal. The signal was measured using an Infinite M200 […]
observed rate constants for inhibition (kobs), at different inhibitor concentrations, were determined from the slope of a semi-logarithmic plot of inhibition versus time, and re-plotted against inhibitor concentration (nM). The experimental values were fitted into a hyperbolic function using GraphPad Prism 8 ([…]), to obtain the KI, kinact, and kinact/KI, as described previously.12 […]
(Thermo Fisher Scientific) using gold-coated glass needles. […]

TXK = TXK (Homo sapiens, UniProt P42681); assay: KINOMEscan binding; details: read-out: % Ctrl TXK
Method: (§1) Therefore, we included the whole TEC, EGFR and JAK family in our screening, and the Src family and Lkb1, which also have a cysteine within the same sequence alignment.
(§2) Kinome selectivity was performed with DiscoverX KINOMEscan™ technology.

ERBB4 = ERBB4 (Homo sapiens, UniProt Q15303); assay: KINOMEscan binding; details: read-out: % Ctrl ERBB4
Method: as §1, §2

[1] = biological target: JAK1(JH1domain-catalytic) (Homo sapiens, UniProt P23458); assay: KINOMEscan binding; details: read-out: % Ctrl JAK1(JH1domain-catalytic)
JAK1(JH1domain-catalytic), sequence (P23458 867-1154 limits assumed): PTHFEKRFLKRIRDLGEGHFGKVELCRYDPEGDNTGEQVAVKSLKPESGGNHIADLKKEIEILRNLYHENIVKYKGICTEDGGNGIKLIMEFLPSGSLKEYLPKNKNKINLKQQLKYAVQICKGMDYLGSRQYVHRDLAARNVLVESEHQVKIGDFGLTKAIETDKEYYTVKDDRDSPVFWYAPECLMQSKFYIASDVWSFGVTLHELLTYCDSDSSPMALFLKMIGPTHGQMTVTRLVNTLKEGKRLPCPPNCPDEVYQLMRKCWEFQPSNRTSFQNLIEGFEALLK
Method: as §1, §2

[2] = biological target: JAK2(JH1domain-catalytic) (Homo sapiens, UniProt O60674); assay: KINOMEscan binding; details: read-out: % Ctrl JAK2(JH1domain-catalytic)
Method: (§3) Therefore, we included the whole TEC, EGFR and JAK family in our screening, and the Src family and Lkb1, which also have a cysteine within the same sequence alignment. We also included kinases involved in upstream (Src, FAK, PI3K, mTOR, PDK1) and downstream (Akt, PAK1, TAM) regulation of BMX signaling pathway and non-receptor tyrosine protein kinase Abl.
as §2

PTK2 = PTK2 (Homo sapiens, UniProt Q05397); assay: KINOMEscan binding; details: read-out: % Ctrl PTK2
PTK2, sequence (Q05397 whole entry): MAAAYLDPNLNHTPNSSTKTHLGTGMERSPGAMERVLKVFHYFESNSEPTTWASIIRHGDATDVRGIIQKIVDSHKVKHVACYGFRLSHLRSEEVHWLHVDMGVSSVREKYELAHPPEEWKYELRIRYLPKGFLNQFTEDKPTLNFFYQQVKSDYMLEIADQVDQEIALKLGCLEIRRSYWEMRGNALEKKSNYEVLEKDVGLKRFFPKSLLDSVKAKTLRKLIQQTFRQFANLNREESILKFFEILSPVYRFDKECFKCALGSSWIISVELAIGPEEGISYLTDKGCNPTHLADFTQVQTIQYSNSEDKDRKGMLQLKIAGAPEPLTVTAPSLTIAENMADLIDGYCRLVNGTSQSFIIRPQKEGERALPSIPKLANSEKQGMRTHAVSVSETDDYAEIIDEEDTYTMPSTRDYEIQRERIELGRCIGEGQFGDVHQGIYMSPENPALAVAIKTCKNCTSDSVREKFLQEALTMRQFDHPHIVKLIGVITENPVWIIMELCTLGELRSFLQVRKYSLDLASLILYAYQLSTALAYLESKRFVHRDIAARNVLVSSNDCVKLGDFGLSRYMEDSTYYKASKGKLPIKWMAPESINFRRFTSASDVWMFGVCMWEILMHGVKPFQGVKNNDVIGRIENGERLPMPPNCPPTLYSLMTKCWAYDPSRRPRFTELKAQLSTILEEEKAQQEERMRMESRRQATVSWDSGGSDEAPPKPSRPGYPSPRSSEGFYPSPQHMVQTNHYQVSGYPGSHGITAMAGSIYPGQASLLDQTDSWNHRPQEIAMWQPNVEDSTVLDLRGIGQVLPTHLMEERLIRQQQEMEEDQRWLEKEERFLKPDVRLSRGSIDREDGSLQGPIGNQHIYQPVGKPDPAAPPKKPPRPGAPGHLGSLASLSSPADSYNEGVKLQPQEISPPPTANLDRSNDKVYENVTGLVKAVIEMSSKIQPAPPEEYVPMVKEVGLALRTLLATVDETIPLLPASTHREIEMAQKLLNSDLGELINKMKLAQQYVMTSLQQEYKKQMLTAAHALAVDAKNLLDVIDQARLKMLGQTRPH
Method: as §3, §2

PIK3CD = PIK3CD (Homo sapiens, UniProt O00329); assay: KINOMEscan binding; details: read-out: % Ctrl PIK3CD
PIK3CD, sequence (O00329 whole entry): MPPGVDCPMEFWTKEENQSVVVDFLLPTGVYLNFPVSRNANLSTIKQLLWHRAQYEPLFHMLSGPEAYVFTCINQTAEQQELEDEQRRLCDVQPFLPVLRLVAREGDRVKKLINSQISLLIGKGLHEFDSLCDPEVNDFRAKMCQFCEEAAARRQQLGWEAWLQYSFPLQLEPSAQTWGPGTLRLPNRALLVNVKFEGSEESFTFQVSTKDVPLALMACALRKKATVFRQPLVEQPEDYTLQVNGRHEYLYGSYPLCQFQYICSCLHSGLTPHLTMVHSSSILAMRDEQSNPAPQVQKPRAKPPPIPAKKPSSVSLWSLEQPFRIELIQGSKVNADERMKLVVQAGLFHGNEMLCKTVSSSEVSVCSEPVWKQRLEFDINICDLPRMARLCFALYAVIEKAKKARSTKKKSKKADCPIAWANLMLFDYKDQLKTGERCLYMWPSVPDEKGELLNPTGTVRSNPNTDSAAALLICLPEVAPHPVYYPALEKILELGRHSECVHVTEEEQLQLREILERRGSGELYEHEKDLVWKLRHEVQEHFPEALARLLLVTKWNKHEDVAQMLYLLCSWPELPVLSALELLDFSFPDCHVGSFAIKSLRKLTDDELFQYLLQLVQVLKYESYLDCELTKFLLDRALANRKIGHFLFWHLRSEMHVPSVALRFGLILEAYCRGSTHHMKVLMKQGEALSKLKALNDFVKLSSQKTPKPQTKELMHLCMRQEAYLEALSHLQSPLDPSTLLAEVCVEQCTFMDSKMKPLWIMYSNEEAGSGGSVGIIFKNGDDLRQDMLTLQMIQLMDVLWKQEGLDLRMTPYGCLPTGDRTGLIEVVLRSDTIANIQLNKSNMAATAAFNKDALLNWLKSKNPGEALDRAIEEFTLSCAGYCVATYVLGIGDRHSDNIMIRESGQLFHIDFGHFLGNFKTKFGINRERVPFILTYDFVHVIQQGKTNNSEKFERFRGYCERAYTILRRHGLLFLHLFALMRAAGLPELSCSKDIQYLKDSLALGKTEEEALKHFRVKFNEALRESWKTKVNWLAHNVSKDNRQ
Method: as §3, §2

SRC = SRC (Homo sapiens, UniProt P12931); assay: KINOMEscan binding; details: read-out: % Ctrl SRC
Method: as §3, §2

YES1 = YES1 (Homo sapiens, UniProt P07947); assay: KINOMEscan binding; details: read-out: % Ctrl YES1
YES1, sequence (P07947 whole entry): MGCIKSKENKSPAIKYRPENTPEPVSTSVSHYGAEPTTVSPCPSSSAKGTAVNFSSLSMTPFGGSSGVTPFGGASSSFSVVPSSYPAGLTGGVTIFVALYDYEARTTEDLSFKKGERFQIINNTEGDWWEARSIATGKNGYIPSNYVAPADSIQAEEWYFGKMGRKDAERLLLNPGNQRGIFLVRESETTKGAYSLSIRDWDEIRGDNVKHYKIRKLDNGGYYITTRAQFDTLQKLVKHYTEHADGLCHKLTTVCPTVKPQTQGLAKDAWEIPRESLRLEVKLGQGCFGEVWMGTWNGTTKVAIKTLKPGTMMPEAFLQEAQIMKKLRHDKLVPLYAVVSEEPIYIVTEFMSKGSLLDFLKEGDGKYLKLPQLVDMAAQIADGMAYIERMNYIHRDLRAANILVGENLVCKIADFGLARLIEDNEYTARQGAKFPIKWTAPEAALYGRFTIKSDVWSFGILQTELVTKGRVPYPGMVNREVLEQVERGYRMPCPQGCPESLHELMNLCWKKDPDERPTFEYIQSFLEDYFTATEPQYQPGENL
Method: as §1, §2

AXL = AXL (Homo sapiens, UniProt P30530); assay: KINOMEscan binding; details: read-out: % Ctrl AXL
AXL, sequence (P30530 26-894): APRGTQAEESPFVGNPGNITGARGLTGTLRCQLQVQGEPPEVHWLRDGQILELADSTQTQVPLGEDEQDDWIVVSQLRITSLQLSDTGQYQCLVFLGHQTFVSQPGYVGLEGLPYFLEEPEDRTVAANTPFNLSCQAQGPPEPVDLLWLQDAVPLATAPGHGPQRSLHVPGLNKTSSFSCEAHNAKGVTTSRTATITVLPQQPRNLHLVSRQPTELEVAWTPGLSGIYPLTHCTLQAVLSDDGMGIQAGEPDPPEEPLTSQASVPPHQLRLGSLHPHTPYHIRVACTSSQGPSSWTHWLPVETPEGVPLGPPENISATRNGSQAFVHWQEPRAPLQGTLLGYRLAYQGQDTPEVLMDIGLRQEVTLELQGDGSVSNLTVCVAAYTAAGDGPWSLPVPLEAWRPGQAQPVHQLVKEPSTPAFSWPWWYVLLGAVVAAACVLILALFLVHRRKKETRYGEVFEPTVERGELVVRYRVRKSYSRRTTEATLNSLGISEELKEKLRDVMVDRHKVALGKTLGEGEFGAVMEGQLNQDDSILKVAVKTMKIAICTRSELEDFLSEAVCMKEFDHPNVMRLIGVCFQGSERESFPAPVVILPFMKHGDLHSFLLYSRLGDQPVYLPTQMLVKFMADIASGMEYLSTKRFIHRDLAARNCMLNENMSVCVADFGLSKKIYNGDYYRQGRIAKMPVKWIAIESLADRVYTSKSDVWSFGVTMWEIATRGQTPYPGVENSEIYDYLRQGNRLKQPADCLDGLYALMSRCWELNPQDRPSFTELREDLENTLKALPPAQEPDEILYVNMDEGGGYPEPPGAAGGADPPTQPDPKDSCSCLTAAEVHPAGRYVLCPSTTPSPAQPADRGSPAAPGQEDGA
Method: as §3, §2

ABL1-phosphorylated = ABL1-phosphorylated (Homo sapiens, UniProt P00519); assay: KINOMEscan binding; details: read-out: % Ctrl ABL1-phosphorylated
ABL1-phosphorylated, sequence (P00519 whole entry): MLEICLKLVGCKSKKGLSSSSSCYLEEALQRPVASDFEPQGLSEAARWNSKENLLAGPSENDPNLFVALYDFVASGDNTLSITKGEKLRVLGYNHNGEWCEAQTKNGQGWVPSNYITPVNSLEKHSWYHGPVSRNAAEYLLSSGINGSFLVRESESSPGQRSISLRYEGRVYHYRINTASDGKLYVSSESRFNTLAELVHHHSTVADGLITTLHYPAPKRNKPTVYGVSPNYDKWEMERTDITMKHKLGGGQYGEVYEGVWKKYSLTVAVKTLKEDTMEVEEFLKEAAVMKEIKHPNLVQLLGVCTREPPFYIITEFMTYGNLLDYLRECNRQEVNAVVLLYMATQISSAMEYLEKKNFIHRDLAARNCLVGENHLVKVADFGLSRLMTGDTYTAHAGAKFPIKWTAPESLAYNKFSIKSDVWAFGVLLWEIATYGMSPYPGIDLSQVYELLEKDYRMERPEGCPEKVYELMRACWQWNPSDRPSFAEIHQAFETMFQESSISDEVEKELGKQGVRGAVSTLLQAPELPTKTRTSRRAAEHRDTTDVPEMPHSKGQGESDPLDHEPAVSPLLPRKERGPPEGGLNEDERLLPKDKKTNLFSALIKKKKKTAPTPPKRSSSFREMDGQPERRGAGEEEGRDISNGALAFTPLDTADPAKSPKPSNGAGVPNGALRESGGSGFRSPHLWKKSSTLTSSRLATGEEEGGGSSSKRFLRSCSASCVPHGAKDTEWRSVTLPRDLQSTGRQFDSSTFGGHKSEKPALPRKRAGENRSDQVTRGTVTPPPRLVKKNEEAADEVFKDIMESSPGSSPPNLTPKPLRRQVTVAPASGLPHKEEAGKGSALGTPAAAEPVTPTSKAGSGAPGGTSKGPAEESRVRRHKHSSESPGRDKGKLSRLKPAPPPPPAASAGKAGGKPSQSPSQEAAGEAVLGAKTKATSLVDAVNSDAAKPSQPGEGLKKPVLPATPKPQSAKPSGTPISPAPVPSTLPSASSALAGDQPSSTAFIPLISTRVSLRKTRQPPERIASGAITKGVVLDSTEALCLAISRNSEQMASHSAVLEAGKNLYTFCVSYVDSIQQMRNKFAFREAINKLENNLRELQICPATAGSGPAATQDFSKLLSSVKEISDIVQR
Method: as §3, §2

Row | GI50 (U-87MG) | k inact (BMX) | Compound | remaining binding at 1 µM (TXK) | remaining binding at 1 µM (ERBB4) | remaining binding at 1 µM [1] | remaining binding at 1 µM [2] | remaining binding at 1 µM (PTK2) | remaining binding at 1 µM (PIK3CD) | remaining binding at 1 µM (SRC) | remaining binding at 1 µM (YES1) | remaining binding at 1 µM (AXL) | remaining binding at 1 µM (ABL1-phosphorylated)
1 | 5.04 ± 0.01 µM | 0.335 min⁻¹ and 0.335 ± 0.001 min⁻¹ | C=CC(=O)Nc1cc(-n2c(=O)ccc3cnc4cc(-c5ccc(NS(C)(=O)=O)cc5)ccc4c32)ccc1C [JS24] | – | – | – | – | – | – | – | – | – | –
2 | – | – | C=CC(=O)Nc1cc(C)cc(-n2c(=O)ccc3cnc4cc(-c5ccc(NS(C)(=O)=O)cc5)ccc4c32)c1 [JS25] | 3.4% | 66% | 93% | 81% | 93% | 100% | 92% | 85% | 93% | 100%
